In the supplement of paper PMC10307832:

Columns and labels:
Assay in all cases: relative viability (nuclei count vs DMSO), 5 days (fraction); higher = more cells survive
AZ628 + Vorinostat = compound: CC1=C(C=C(C=C1)NC(=O)C2=CC(=CC=C2)C(C)(C)C#N)NC3=CC4=C(C=C3)N=CN(C4=O)C [AZ628] + O=C(CCCCCCC(=O)Nc1ccccc1)NO [Vorinostat] (partner 1 µM)
In short: (§1)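 After 5 days of treatment, lung cancer cells in 1536-well plates were fixed and stained in a single step (final 0.05% Triton X-100, 1% formaldehyde, 1 ug/ml Hoechst) and their nuclei counted on 4× images. Treatment had been applied by pin tool the day after seeding as one drug alone or as a fixed anchor-drug dose with five library-drug doses (not always all listed) in √10 steps. Relative viability is the nuclei count of treated wells divided by that of vehicle wells, and values are medians of duplicate plates.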

QS11 + Luminespib = compound: C1CC2=C(C1)C=C(C=C2)OC3=NC(=C4C(=N3)N(C=N4)CC5=CC=C(C=C5)C6=CC=CC=C6)N[C@@H](CC7=CC=CC=C7)CO [QS11] + CCNC(=O)c1noc(-c2cc(C(C)C)c(O)cc2O)c1-c1ccc(CN2CCOCC2)cc1 [Luminespib] (partner 0.01 µM)
In short: as §1

[1] = compound: C[As](C)SC[C@H](NC(=O)CC[C@H](N)C(=O)O)C(=O)NCC(=O)O [Darinaparsin] + CC(C)C[C@H](NC(=O)[C@H](Cc1ccccc1)NC(=O)c1cnccn1)B(O)O [Bortezomib] (partner 0.002 µM)
In short: as §1

AZ628 + Decitabine = compound: CC1=C(C=C(C=C1)NC(=O)C2=CC(=CC=C2)C(C)(C)C#N)NC3=CC4=C(C=C3)N=CN(C4=O)C [AZ628] + Nc1ncn([C@H]2C[C@H](O)[C@@H](CO)O2)c(=O)n1 [Decitabine] (partner 2 µM)
In short: as §1

| Cell Line | relative viability (AZ628 + Vorinostat; first compound 0.08 µM) | relative viability (AZ628 + Vorinostat; first compound 0.253 µM) | relative viability (AZ628 + Vorinostat; first compound 0.8 µM) | relative viability (AZ628 + Vorinostat; first compound 2.53 µM) | relative viability (AZ628 + Vorinostat; first compound 8 µM) | relative viability (QS11 + Luminespib; first compound 0.08 µM) | relative viability (QS11 + Luminespib; first compound 0.253 µM) | relative viability (QS11 + Luminespib; first compound 0.8 µM) | relative viability (QS11 + Luminespib; first compound 2.53 µM) | relative viability (QS11 + Luminespib; first compound 8 µM) | relative viability ([1]; first compound 0.08 µM) | relative viability ([1]; first compound 0.8 µM) | relative viability ([1]; first compound 2.53 µM) | relative viability ([1]; first compound 8 µM) | relative viability (AZ628 + Decitabine; first compound 0.08 µM) | relative viability (AZ628 + Decitabine; first compound 0.253 µM) | relative viability (AZ628 + Decitabine; first compound 0.8 µM) | relative viability (AZ628 + Decitabine; first compound 2.53 µM) | relative viability (AZ628 + Decitabine; first compound 8 µM) |
| --- | --- | --- | --- | --- | --- | --- | --- | --- | --- | --- | --- | --- | --- | --- | --- | --- | --- | --- | --- |
| NCI-H2009 | 0.595 | 0.783 | 0.568 | 0.612 | 0.405 | 1.01 | 1.15 | 0.823 | 0.905 | 0.935 | 1.1 | 1.06 | 0.963 | 0.845 | 0.404 | 0.36 | 0.313 | 0.32 | 0.291 |
| SK-LU-1 | 0.595 | 0.896 | 0.726 | 0.758 | 0.611 | 0.21 | 0.192 | 0.211 | 0.223 | 0.211 | 1.58 | 1.19 | 0.871 | 1.33 | 0.549 | 0.55 | 0.505 | 0.577 | 0.391 |
| RERF-LC-KJ | 0.779 | 0.735 | 0.741 | 0.677 | 0.656 | 1.5 | 1.35 | 1.04 | 1.22 | 1.11 | 1.33 | 1.14 | 1.14 | 1.12 | 0.698 | 0.708 | 0.644 | 0.647 | 0.688 |
| NCI-H322M | 1.03 | 0.856 | 0.989 | 0.937 | 0.816 | 0.823 | 0.863 | 0.911 | 0.99 | 1.24 | 1.21 | 1.3 | 1.04 | 1.32 | 0.659 | 0.716 | 0.696 | 0.681 | 0.688 |
| LK-2 | 0.272 | 0.244 | 0.396 | 0.275 | 0.222 | 0.164 | 0.229 | 0.178 | 0.172 | 0.146 |  |  |  |  | 0.308 | 0.271 | 0.326 | 0.338 | 0.184 |
| SK-MES-1 | 1.07 | 1.18 | 1.04 | 1.1 | 0.572 | 0.553 | 0.927 | 0.685 | 0.883 | 0.823 |  |  |  |  | 0.448 | 0.379 | 0.434 | 0.43 | 0.338 |
| NCI-H1299 |  |  |  |  |  |  |  |  |  |  | 1.01 | 0.99 | 1.03 | 1.04 |  |  |  |  |  |
| NCI-H2228 | 0.697 | 0.684 | 0.644 | 0.507 | 0.432 | 0.0998 | 0.191 | 0.154 | 0.14 | 0.145 | 1.63 | 1.12 | 0.975 | 1.13 |  |  |  |  |  |
| NCI-H1792 |  |  |  |  |  | 0.432 | 0.417 | 0.386 | 0.369 | 0.409 | 1.69 | 1.03 | 0.652 | 1.03 | 0.605 | 0.532 | 0.514 | 0.476 | 0.121 |
| LOU-NH91 | 1 | 0.911 | 0.904 | 0.794 | 0.675 | 0.361 | 0.361 | 0.34 | 0.308 | 0.368 | 0.495 | 0.56 | 0.537 | 0.519 | 0.814 | 0.811 | 0.801 | 0.816 | 0.749 |
| IA-LM | 1.01 | 0.962 | 0.657 | 0.722 | 0.21 |  |  |  |  |  | 0.893 | 1.08 | 1.32 | 1.01 |  |  |  |  |  |
| SW 900 | 0.622 | 0.463 | 0.573 | 0.426 | 0.534 | 0.18 | 0.197 | 0.166 | 0.17 | 0.178 |  |  |  |  | 0.442 | 0.445 | 0.509 | 0.417 | 0.441 |
| LU99A | 0.511 | 0.473 | 0.496 | 0.52 | 0.33 | 0.238 | 0.269 | 0.284 | 0.273 | 0.335 | 1.33 | 1.01 | 1.17 | 1.21 | 0.825 | 0.669 | 0.806 | 0.447 | 0.386 |
| NCI-H661 | 0.831 | 0.916 | 0.818 | 0.778 | 0.743 | 0.988 | 0.96 | 0.806 | 1.08 | 0.839 | 0.975 | 0.853 | 0.92 | 0.889 | 0.601 | 0.491 | 0.445 | 0.451 | 0.482 |
| EBC-1 |  |  |  |  |  |  |  |  |  |  | 0.473 | 0.559 | 0.471 | 0.507 |  |  |  |  |  |
| NCI-H3122 | 0.932 | 0.921 | 0.737 | 0.768 | 0.496 | 0.114 | 0.148 |  | 0.114 | 0.109 | 1.04 | 1.02 | 1.08 | 1.13 | 0.307 | 0.21 | 0.221 | 0.239 | 0.161 |
| LC-2-ad | 0.78 | 0.865 | 0.796 | 0.74 | 0.656 | 0.851 | 0.981 | 0.857 | 0.956 | 1.17 | 1.2 | 1.02 | 0.951 | 1.33 | 0.821 | 0.782 | 0.816 | 0.732 | 0.453 |
